Like-named read-outs stand apart in the source and are kept apart here.

This is an account of results in article PMC3694096, “Development of Novel In Vivo Chemical Probes to Address CNS Protein Kinase Involvement in Synaptic Dysfunction” (PLoS ONE, 2013).

Data set [1] in a line: Acid dissociation constant (pKa). Format: physicochemical. The settings on record: water with methanol co-solvent, ionic strength 0.15 M KCl, 22±2°C.
In the next data set the target is T1, SAPK2b (SAPK=p38MAPK) (Homo sapiens, UniProt Q15759).
T1 construct: purchased Millipore
T1 sequence (Q15759 whole entry): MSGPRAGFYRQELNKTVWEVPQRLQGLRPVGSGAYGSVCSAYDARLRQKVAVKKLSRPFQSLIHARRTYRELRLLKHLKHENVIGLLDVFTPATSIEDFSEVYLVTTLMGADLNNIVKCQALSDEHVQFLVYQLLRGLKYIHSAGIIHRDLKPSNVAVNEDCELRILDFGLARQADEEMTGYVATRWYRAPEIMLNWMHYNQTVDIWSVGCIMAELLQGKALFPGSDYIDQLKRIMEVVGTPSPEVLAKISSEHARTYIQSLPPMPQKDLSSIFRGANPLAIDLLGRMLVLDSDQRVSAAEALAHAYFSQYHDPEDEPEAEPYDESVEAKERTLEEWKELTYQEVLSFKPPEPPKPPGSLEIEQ
Put plainly: Kinome profiler screen. It counts as biochemical. Conditions: at 20,000 nM inhibitor; kinase activity remaining.

The target of another data set is T2, NLK (Homo sapiens, UniProt Q9UBE8).
T2 sequence (Q9UBE8 1-527): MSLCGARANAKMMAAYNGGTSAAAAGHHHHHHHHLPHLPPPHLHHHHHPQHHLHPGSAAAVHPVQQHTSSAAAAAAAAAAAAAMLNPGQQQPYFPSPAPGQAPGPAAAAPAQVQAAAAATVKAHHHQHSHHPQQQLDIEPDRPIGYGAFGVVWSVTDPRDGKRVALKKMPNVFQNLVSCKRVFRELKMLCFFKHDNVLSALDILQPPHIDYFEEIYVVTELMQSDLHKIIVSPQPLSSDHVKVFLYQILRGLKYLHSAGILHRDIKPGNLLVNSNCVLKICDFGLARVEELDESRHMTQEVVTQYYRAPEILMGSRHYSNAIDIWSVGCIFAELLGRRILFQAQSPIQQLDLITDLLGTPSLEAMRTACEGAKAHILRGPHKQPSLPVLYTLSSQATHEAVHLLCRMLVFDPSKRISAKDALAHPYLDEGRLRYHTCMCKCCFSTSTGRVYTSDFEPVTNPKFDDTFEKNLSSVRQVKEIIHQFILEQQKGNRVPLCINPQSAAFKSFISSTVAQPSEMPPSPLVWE
Put plainly: Kinetic analysis, Ki. It counts as biochemical. Also noted: purchased Millipore.

The target of a further data set is T3, PI3 Kinase (p110α/p85α) (Homo sapiens, UniProt P42336).
T3 construct: purchased Millipore KinaseProfiler
T3 sequence (P42336 whole entry): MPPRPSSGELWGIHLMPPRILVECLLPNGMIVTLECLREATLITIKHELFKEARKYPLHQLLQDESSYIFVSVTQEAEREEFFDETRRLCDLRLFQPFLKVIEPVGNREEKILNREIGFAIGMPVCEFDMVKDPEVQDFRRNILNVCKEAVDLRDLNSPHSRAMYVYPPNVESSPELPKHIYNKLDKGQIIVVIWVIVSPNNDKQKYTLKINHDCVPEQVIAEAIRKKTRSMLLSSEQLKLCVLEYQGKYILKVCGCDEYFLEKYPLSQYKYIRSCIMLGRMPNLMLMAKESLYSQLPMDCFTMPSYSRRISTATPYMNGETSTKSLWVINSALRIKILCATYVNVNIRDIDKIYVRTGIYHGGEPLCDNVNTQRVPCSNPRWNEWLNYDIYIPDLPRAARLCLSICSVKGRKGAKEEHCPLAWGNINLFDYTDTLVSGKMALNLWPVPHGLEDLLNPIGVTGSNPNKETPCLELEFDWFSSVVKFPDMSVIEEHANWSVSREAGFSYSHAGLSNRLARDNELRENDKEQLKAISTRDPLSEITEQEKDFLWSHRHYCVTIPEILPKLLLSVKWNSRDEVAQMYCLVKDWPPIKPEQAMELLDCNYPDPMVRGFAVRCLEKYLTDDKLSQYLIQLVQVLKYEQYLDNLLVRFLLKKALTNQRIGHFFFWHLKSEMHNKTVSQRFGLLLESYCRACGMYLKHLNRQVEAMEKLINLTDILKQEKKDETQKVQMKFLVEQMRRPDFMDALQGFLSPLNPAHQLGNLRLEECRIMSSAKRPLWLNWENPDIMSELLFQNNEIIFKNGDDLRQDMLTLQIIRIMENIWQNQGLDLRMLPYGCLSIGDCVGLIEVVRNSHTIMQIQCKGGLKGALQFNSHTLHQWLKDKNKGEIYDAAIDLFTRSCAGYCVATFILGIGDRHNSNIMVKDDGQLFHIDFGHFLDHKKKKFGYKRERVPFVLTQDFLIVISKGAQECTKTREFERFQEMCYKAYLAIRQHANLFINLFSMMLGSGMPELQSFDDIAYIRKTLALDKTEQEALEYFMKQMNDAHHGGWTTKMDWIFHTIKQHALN
T3 sequence (P27986 whole entry partner): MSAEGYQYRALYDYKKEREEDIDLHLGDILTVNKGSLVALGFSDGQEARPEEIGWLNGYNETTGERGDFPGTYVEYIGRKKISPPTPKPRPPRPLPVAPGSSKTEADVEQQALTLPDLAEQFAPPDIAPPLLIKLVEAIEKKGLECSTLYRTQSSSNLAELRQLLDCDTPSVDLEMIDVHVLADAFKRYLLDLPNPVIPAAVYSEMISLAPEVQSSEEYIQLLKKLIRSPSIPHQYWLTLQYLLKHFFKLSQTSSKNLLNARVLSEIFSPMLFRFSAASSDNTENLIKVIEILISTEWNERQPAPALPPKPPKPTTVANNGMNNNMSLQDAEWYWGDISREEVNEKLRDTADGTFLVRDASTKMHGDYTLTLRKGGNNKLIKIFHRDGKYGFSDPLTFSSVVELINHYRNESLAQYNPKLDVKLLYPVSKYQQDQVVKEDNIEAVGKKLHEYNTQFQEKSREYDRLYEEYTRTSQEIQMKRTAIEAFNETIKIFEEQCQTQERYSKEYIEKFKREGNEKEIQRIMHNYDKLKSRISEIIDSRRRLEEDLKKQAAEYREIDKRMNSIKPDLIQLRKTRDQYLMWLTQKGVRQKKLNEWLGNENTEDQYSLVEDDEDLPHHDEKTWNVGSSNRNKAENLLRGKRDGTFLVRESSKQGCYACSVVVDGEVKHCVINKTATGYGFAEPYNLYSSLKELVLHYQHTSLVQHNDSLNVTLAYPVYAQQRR
Put plainly: Kinome profiler screen. Format: biochemical. The settings on record: at 20,000 nM inhibitor; kinase activity remaining.

For data set [2], the system named is phospho-MK-2 (p38αMAPK substrate) in BV-2 cells. Put plainly: LPS-induced phosphorylation of MK-2 in BV-2 cells. Conditions: LPS-stimulated BV-2 cells, 60 min. Format: cell-based, murine.
A further data set addresses T4, SAPK3 (SAPK=p38MAPK) (Homo sapiens, UniProt P53778).
T4 construct: purchased Millipore KinaseProfiler
Put plainly: Kinome profiler screen. Format: biochemical. The settings on record: at 20,000 nM inhibitor; kinase activity remaining.

The target of the next data set is T5, Blk (Homo sapiens, UniProt P51451).
T5 construct: purchased Millipore KinaseProfiler
Put plainly: Kinome profiler screen. It counts as biochemical. The settings on record: at 20,000 nM inhibitor; kinase activity remaining.

The next data set addresses JNK1α1 (Homo sapiens, UniProt P45983). Put plainly: biochemical.
Data set [3] has as its system primary microglia from wild-type (WT) mice. Put plainly: LPS-induced IL-1β in primary microglia, wild-type. Format: cell-based, C57Bl/6 mice. Conditions: LPS 3 ng/ml, 24 hrs.
The target of data set [4] is T6, PI3 Kinase (p110α (E542K)/p85α) (Homo sapiens, UniProt P42336, E542K).
T6 construct: purchased Millipore KinaseProfiler
T6 sequence (P42336 whole entry E542K): as the sequence (P42336 whole entry) above, with E542K counted along it
T6 sequence (P27986 whole entry partner): as the sequence (P27986 whole entry partner) above
Put plainly: Kinome profiler screen. It counts as biochemical. Conditions: at 20,000 nM inhibitor; kinase activity remaining.

For the next data set, the system named is MLCK. Put plainly: Kinome profiler screen. It counts as biochemical. Conditions: at 20,000 nM inhibitor; kinase activity remaining.
Data set [5] addresses T7, PI3 Kinase (p110α (H1047R)/p85α) (Homo sapiens, UniProt P42336, H1047R).
T7 construct: purchased Millipore KinaseProfiler
Put plainly: Kinome profiler screen. It counts as biochemical. The settings on record: at 20,000 nM inhibitor; kinase activity remaining.

The next data set has as its target JNK2α2 (Homo sapiens, UniProt P45984). Put plainly: biochemical.
The target of the next data set is T8, PI3 kinase (p110α/p65α) (Homo sapiens, UniProt P42336).
T8 construct: purchased Millipore KinaseProfiler
T8 sequence (P42336 whole entry): as the sequence (P42336 whole entry) above
T8 sequence (P27986 1-571 partner limits assumed): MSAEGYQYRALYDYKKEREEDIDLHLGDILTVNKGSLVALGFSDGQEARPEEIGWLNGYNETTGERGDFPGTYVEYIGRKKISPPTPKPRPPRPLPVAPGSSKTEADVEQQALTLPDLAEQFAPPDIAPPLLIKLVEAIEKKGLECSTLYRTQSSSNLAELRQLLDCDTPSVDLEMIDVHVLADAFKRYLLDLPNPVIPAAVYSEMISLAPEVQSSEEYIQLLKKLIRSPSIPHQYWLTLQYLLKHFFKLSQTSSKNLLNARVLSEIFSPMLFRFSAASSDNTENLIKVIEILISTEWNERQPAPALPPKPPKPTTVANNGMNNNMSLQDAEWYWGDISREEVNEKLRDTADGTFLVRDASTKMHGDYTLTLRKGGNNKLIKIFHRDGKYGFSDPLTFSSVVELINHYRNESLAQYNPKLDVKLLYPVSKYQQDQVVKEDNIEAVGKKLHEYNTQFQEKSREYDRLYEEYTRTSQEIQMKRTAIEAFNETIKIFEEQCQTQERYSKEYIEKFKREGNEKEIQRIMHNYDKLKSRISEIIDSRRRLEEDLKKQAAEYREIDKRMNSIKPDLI
Put plainly: Kinome profiler screen. It counts as biochemical. The settings on record: at 20,000 nM inhibitor; kinase activity remaining.

The target in a further data set is T9, SAPK4 (SAPK=p38MAPK) (Homo sapiens, UniProt O15264).
T9 construct: purchased Millipore KinaseProfiler
T9 sequence (O15264 whole entry): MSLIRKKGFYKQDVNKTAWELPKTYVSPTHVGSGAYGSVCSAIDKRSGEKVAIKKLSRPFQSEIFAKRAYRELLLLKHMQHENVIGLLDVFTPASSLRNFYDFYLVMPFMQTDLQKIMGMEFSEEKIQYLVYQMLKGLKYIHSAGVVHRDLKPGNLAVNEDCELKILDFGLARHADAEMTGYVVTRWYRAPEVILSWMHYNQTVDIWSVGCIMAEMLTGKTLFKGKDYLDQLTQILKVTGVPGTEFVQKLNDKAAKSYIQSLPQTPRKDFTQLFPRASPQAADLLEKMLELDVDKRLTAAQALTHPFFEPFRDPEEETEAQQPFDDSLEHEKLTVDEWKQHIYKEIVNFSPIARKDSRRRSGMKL
Put plainly: Kinome profiler screen. Conditions: at 20,000 nM inhibitor; kinase activity remaining. It counts as biochemical.

Data set [6] addresses T10, PI3 Kinase (p110α (E545K)/p85α) (Homo sapiens, UniProt P42336, E545K).
T10 construct: purchased Millipore KinaseProfiler
Put plainly: Kinome profiler screen. It counts as biochemical. The settings on record: at 20,000 nM inhibitor; kinase activity remaining.

T4 sequence (P53778 whole entry): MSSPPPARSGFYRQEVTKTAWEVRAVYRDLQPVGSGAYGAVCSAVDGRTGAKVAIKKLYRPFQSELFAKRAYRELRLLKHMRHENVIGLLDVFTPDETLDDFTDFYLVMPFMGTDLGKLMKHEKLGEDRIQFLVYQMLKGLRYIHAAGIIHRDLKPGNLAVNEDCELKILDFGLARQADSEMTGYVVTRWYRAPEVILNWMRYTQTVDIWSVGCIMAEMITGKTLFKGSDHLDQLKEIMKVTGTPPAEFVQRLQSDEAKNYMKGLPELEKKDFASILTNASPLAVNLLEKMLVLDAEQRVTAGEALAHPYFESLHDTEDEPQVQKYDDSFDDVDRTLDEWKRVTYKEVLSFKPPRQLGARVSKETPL
Sequence of JNK1α1 (P45983 1-384 isoform P45983-2): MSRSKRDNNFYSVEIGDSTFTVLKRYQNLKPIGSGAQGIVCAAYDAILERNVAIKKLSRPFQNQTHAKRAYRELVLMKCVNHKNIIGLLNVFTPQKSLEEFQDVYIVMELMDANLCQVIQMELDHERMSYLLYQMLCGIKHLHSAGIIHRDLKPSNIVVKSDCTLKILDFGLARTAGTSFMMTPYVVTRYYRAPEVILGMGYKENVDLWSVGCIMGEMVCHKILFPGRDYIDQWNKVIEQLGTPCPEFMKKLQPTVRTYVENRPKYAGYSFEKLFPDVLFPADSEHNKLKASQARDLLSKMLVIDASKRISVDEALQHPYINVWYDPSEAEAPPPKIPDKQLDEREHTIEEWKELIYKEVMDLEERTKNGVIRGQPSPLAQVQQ
Sequence of JNK2α2 (P45984 whole entry): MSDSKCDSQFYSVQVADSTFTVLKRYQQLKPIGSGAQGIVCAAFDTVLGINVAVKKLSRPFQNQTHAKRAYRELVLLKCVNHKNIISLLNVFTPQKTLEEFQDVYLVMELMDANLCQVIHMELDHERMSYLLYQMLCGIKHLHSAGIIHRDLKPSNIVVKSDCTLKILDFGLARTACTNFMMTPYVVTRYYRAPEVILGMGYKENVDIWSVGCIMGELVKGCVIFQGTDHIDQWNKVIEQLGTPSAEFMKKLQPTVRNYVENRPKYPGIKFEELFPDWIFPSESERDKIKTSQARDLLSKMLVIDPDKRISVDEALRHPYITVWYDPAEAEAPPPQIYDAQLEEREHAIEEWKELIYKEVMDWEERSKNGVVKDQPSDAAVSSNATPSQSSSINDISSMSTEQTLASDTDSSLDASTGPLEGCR
T10 sequence (P42336 whole entry E545K): as the sequence (P42336 whole entry) above, with E545K counted along it
T10 sequence (P27986 whole entry partner): as the sequence (P27986 whole entry partner) above
T7 sequence (P42336 whole entry H1047R): as the sequence (P42336 whole entry) above, with H1047R counted along it
T7 sequence (P27986 whole entry partner): as the sequence (P27986 whole entry partner) above

In the case of `CN(C)c1cc(-c2ccncc2)c(-c2cccc3ccccc23)nn1` [MW181, N,N-dimethyl-6-(naphthalen-1-yl)-5-(pyridin-4-yl)pyridazin-3-amine], the pKa (in general, the pH at which an ionisable group is half protonated) was 4.71 ± 0.03 in [1] (read-out: pKa (UV method), first value); 3.19 ± 0.09 in data set [1] (read-out: pKa (UV method), second value); less than 3.5 in [1] (read-out: pKa (potentiometric method), second value). In addition, on SAPK2b (SAPK=p38MAPK), the activity at 20 µM turned out to be 6%. For the same molecule, the inhibition constant Ki (usually a dissociation constant, usually derived from enzyme kinetics or from competition with a known ligand) on NLK came to 199 nM.

Turning to `CN(C)c1cc(-c2ccncc2)c(-c2ccc3ccccc3c2)nn1` [MW108, N, N-dimethyl-6-(naphthalen-2-yl)-5-(pyridin-4-yl)pyridazin-3-amine], the activity at 20 µM at PI3 Kinase (p110α/p85α) worked out at 98%; at SAPK3 (SAPK=p38MAPK), 87%; at Blk, 88%; on JNK1α1 it was 96%; in [4] it was 99%; in data set [5], 99%. The activity at 20 µM on JNK2α2 was 76%; at PI3 kinase (p110α/p65α) it was 99%; at SAPK4 (SAPK=p38MAPK), 93%; in [6], 98%. Further, in [2], the “phosphorylation of the p38α substrate MK2” value is “inhibited phosphorylation of the p38α substrate MK2 in a concentration-dependent manner”. Besides, in data set [3], the “LPS-induced IL-1β production, WT microglia” value was “inhibited LPS-induced IL-1β production”. Moreover, the “% Activity” value with MLCK amounted to 94%.
